Measurements taken from the supplement of paper PMC10307832.

Key:
Assay in all cases: relative viability (nuclei count vs DMSO), 5 days (fraction); higher = more cells survive
[1] = compound: C1=CC=C(C(=C1)C2=CC=C(C=C2)C3=CSC4=C3C(=C(C(=O)N4)C#N)O)O + CC(=O)c1c(C)c2cnc(Nc3ccc(N4CCNCC4)cn3)nc2n(C2CCCC2)c1=O [Palbociclib] (partner 0.5 µM)
Summary of the method: (§1)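 Five library-drug doses in √10 steps were combined with a fixed anchor-drug dose, or a single drug was given alone, by pin tool to lung cancer cell lines in 1536-well plates the day after seeding. Nuclei were stained and counted after 5 days. Relative viability is the nuclei count in treated wells over that in vehicle wells, taken as the median of duplicate plates.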

[2] = compound: C1=CC=C(C(=C1)C2=CC=C(C=C2)C3=CSC4=C3C(=C(C(=O)N4)C#N)O)O + CS(=O)(=O)N1CCN(Cc2cc3nc(-c4cccc5[nH]ncc45)nc(N4CCOCC4)c3s2)CC1 [Pictilisib] (partner 1 µM)
Summary of the method: as §1

[3] = compound: O=C(CCCCCCNC(=O)c1cnc(N(c2ccccc2)c2ccccc2)nc1)NO [Ricolinostat] + C[C@]1(O)C[C@@H](c2nc(-c3ccc4ccc(-c5ccccc5)nc4c3)c3c(N)nccn32)C1 [Linsitinib] (partner 1 µM)
Summary of the method: as §1

[4] = compound: O=C(CCCCCCNC(=O)c1cnc(N(c2ccccc2)c2ccccc2)nc1)NO [Ricolinostat] + CC1(C)CCC(c2ccc(Cl)cc2)=C(CN2CCN(c3ccc(C(=O)NS(=O)(=O)c4ccc(N[C@H](CCN5CCOCC5)CSc5ccccc5)c(S(=O)(=O)C(F)(F)F)c4)cc3)CC2)C1 [Navitoclax] (partner 0.5 µM)
Summary of the method: as §1

Cell Line	relative viability ([1]; first compound 0.08 µM)	relative viability ([1]; first compound 0.253 µM)	relative viability ([1]; first compound 0.8 µM)	relative viability ([1]; first compound 2.53 µM)	relative viability ([1]; first compound 8 µM)	relative viability ([2]; first compound 0.08 µM)	relative viability ([2]; first compound 0.253 µM)	relative viability ([2]; first compound 0.8 µM)	relative viability ([2]; first compound 2.53 µM)	relative viability ([2]; first compound 8 µM)	relative viability ([3]; first compound 0.08 µM)	relative viability ([3]; first compound 0.253 µM)	relative viability ([3]; first compound 0.8 µM)	relative viability ([3]; first compound 2.53 µM)	relative viability ([4]; first compound 0.08 µM)	relative viability ([4]; first compound 0.253 µM)	relative viability ([4]; first compound 0.8 µM)	relative viability ([4]; first compound 2.53 µM)
EMC-BAC-2	0.523	0.595	0.507	0.539	0.51	0.526	0.516	0.562	0.544	0.477	0.731	0.78	0.832	0.885	1.04	1.09	1.2	1.2
HARA	0.228	0.211	0.218	0.234	0.279		0.668	0.449	0.392	0.442	0.813	0.902	0.886	0.81	1.1	1.1	1.09	1.11
NCI-H727	0.711	0.703	0.571	0.666	0.591	0.376	0.407	0.427	0.353	0.308	0.212	0.269	0.333	0.354	0.356	0.55	0.397	0.405
NCI-H1944	0.329	0.343	0.352	0.306	0.289	0.349	0.39	0.317	0.343	0.357	0.976	1.11	1.1	0.895	0.993	0.972	1.04	0.901
COR-L 105	0.431	0.403	0.419	0.401	0.42	0.387	0.525	0.428	0.417	0.433	0.761	0.92	1.1	1.11	0.688	0.833	0.828	0.722
201T	0.381	0.361	0.362	0.38	0.387	0.646	0.697	0.652	0.584	0.846	0.915	0.964	0.986	0.904	1.21	1.16	1.23	1.24
NCI-H460	0.15	0.149	0.15	0.101	0.158	0.339	0.325	0.367	0.319	0.333	0.468	0.774	0.731	0.58	1.12	0.93	1.08	1.21
LOU-NH91	0.501	0.542	0.535	0.544	0.534	0.482	0.538	0.51	0.515	0.512		0.927	0.973	0.88		0.777	0.642	0.6
LU99A	0.389	0.371	0.44	0.469	0.392	0.283	0.307	0.339	0.332	0.295	0.495	0.473	0.455	0.419	0.782	0.701	0.603	0.491
SW 1573	0.366	0.378	0.447	0.396	0.321	0.475	0.571	0.54	0.458	0.37	0.673	0.781	0.781	0.853	0.807	0.993	0.901	1.01
LK-2	0.515	0.749	0.629	0.913	0.517			0.507	0.656	0.514	0.629	0.645	0.613	0.524	0.841	0.898	0.811	0.842
NCI-H1437	0.277	0.361	0.324	0.326	0.27	0.42	0.475	0.39	0.459	0.494	0.805	1.03	0.98	0.647	1	1.07	1.02	0.831
PC-3 [JPC-3]	0.496	0.599	0.535	0.601	0.577	0.69	0.888	0.665	0.685	0.652	0.894	0.925	0.9	0.793	0.778	0.77	0.739	0.574
NCI-H1395		0.706	0.593	0.611	0.657		0.533	0.631	0.545	0.643		1.2	1.05	1.04		1.13	1.32	1.27
NCI-H1651	0.506	0.491	0.483	0.518	0.48	0.361	0.61	0.636	0.565	0.568	0.72	0.871	0.93	0.816	0.913	0.993	1.02	0.854
CAL-12T	0.429	0.62	0.455	0.405	0.437		0.446	0.359	0.337	0.367	0.55	0.69	0.835	0.859	1.04	1.01	1.01	1.11
NCI-H23	0.445	0.512	0.593	0.51	0.467	0.439	0.462	0.563	0.458	0.396	0.476	0.625	0.59	0.514	0.82	0.791	0.924	0.932
NCI-H2228	0.687	0.6	0.747	0.759	0.6	0.326	0.4	0.479	0.365	0.344	0.455	0.451	0.722	0.814	0.951	0.987	0.8	0.693
